Test results as given in the supplement of paper PMC4862054.

Tests used:
Conditions in all cases: 72 h
BT-549 = test system: BT-549
Method in brief: (§1)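 Plates of 384 wells holding compound in 5 µl medium received breast cancer cell lines in 20 µl suspension and were incubated 72 h. CellTiter-Blue (2.5 µl, 2 h, 37 °C) was used for viability, read at 560/590 nm, and every plate was normalised to vehicle and a positive kill control and assessed by Z'-factor. The EC50 derives from a percent-inhibition dose-response curve fit censored at the highest concentration, leaving out rows whose drug sensitivity score was zero.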

CAL-120 = test system: CAL-120
Method in brief: as §1

HCC1599 = test system: HCC1599
Method in brief: as §1

HCC1937 = test system: HCC1937
Method in brief: as §1

Hs578T = test system: Hs578T
Method in brief: as §1

MDA-MB-231 = test system: MDA-MB-231
Method in brief: as §1

MDA-MB-436 = test system: MDA-MB-436
Method in brief: as §1

MDA-MB-468 = test system: MDA-MB-468
Method in brief: as §1

MFM-223 = test system: MFM-223
Method in brief: as §1

SK-BR-3 = test system: SK-BR-3
Method in brief: as §1

HCC1143 = test system: HCC1143
Method in brief: as §1

SMILES	EC50, CellTiter-Blue viability (BT-549) [µM]	EC50, CellTiter-Blue viability (HCC1599) [µM]	EC50, CellTiter-Blue viability (HCC1937) [µM]	EC50, CellTiter-Blue viability (MDA-MB-231) [µM]	EC50, CellTiter-Blue viability (MDA-MB-436) [µM]	EC50, CellTiter-Blue viability (MDA-MB-468) [µM]	EC50, CellTiter-Blue viability (SK-BR-3) [µM]	EC50, CellTiter-Blue viability (HCC1143) [µM]	EC50, CellTiter-Blue viability (CAL-120) [µM]	EC50, CellTiter-Blue viability (Hs578T) [µM]	EC50, CellTiter-Blue viability (MFM-223) [µM]
CS(=O)(=O)CCNCc1ccc(-c2ccc3ncnc(Nc4ccc(OCc5cccc(F)c5)c(Cl)c4)c3c2)o1 [Lapatinib]	4.32	0.191	6.28	5.82	5.9	1.56	0.0407	–	6.92	3.79	9.85
COC(=O)C[C@](O)(CCCC(C)(C)O)C(=O)O[C@@H]1C(OC)=C[C@]23CCCN2CCc2cc4c(cc2[C@H]13)OCO4 [Omacetaxine]	0.0321	0.018	0.00968	0.0363	0.0266	0.0357	0.0343	0.0469	0.0169	0.044	0.0453
COC1=C2C[C@@H](C)C[C@H](OC)[C@H](O)[C@@H](C)/C=C(\C)[C@H](OC(N)=O)[C@@H](OC)/C=C\C=C(/C)C(=O)NC(=CC1=O)C2=O [Geldanamycin]	0.0468	0.27	0.0471	0.0631	0.0409	0.0647	0.0468	0.0366	0.0381	0.0905	0.09
CC(C)(C)c1cc(NC(=O)Nc2ccc(-c3cn4c(n3)sc3cc(OCCN5CCOCC5)ccc34)cc2)no1 [Quizartinib]	0.259	0.878	–	–	–	–	–	–	–	–	–
Cn1c(=O)c(F)c(Nc2ccc(I)cc2F)c2c(=O)n(C[C@@H](O)CO)cnc21 [TAK-733]	–	–	–	0.00492	–	–	–	0.0142	0.401	0.114	0.0175
COc1cccc2c1C(=O)c1c(O)c3c(c(O)c1C2=O)C[C@@](O)(C(C)=O)C[C@@H]3O[C@H]1C[C@H](N)[C@H](O)[C@H](C)O1 [Daunorubicin]	0.141	0.444	0.0247	0.0561	0.0785	0.0982	0.0664	0.0468	0.0418	0.15	0.667
CC(=O)O[C@H]1C(=O)[C@@]2(C)[C@H]([C@H](OC(=O)c3ccccc3)[C@]3(O)C[C@H](OC(=O)[C@H](O)[C@@H](NC(=O)c4ccccc4)c4ccccc4)C(C)=C1C3(C)C)[C@]1(OC(C)=O)CO[C@@H]1C[C@@H]2O [Paclitaxel]	0.0027	0.111	0.00422	0.00229	0.00449	0.0027	0.00293	0.0074	0.00355	0.0052	0.00449
CCS(=O)(=O)c1cccc(-c2cc(C(=O)NC3CCN(C)CC3)c(C)c3[nH]c4ncc(C)cc4c23)c1 [TAK-901]	0.126	0.11	0.142	0.11	0.214	0.442	–	0.225	0.0944	0.125	0.0566
COc1ncc(-c2ccc3nccc(-c4ccnnc4)c3c2)cc1NS(=O)(=O)c1ccc(F)cc1F	0.0451	0.00737	0.0279	0.0335	0.0264	0.0498	0.00324	0.0198	0.0201	0.0366	0.00862
CS(=O)(=O)OCCCCOS(C)(=O)=O [Busulfan]	–	–	77.1	–	–	–	–	–	–	–	–

More lines, main results first:

EC50, CellTiter-Blue viability (BT-549) [µM]	EC50, CellTiter-Blue viability (HCC1599) [µM]	EC50, CellTiter-Blue viability (HCC1937) [µM]	EC50, CellTiter-Blue viability (MDA-MB-231) [µM]	EC50, CellTiter-Blue viability (MDA-MB-436) [µM]	EC50, CellTiter-Blue viability (MDA-MB-468) [µM]	EC50, CellTiter-Blue viability (SK-BR-3) [µM]	EC50, CellTiter-Blue viability (HCC1143) [µM]	SMILES	EC50, CellTiter-Blue viability (CAL-120) [µM]	EC50, CellTiter-Blue viability (Hs578T) [µM]	EC50, CellTiter-Blue viability (MFM-223) [µM]
1.31	0.0708	3.3	0.435	6.37	0.772	0.588	0.258	C[C@@]1(C(=O)Nc2ccc(F)nc2)CCCN1c1nc(Nc2cc(C3CC3)n[nH]2)c2cccn2n1	1.93	4.74	1.31
0.804	> 10	4.07	0.494	0.182	0.0489	0.0603	1.63	O=c1[nH]c(=O)n([C@H]2C[C@H](O)[C@@H](CO)O2)cc1F [Floxuridine]	0.118	0.501	–
0.0448	0.721	0.0871	0.177	0.429	0.353	0.028	0.064	COc1c(C)cnc(Cn2cnc3c(Cl)nc(N)nc32)c1C [BIIB021]	0.0269	0.047	0.0577
1.03	–	–	1.04	–	–	–	–	COc1cc(Nc2ncc(F)c(Nc3ccc4c(n3)NC(=O)C(C)(C)O4)n2)cc(OC)c1OC [R406]	–	–	–
